Experimental findings from ChEMBL document CHEMBL3758123, “Synthesis, biological evaluation and molecular modeling study of some new thiazolodiazepine analogs as CNS active agents” (Bioorg Med Chem Lett, 2016) are described below.

Calls of active or inactive are those of the source. No cut-off for these calls is given here.

In series [1] the test system is Mus musculus. In words: Anticonvulsant activity in Swiss albino mouse assessed as picrotoxin-induced onset of convulsion time at 200 mg/kg, ip administered for 30 mins followed by picrotoxin challenge. The class given is functional.
Series [2] has as its system Mus musculus. In words: Anticonvulsant activity in Swiss albino mouse assessed as picrotoxin-induced convulsions frequency time at 200 mg/kg, ip administered for 30 mins followed by picrotoxin challenge. The class given is functional.
Series [3] concerns Mus musculus. In words: Toxicity in picrotoxin-induced Swiss albino mouse convulsion model assessed as time of death at 200 mg/kg, ip administered for 30 mins followed by picrotoxin challenge. The class given is organism-based. Conditions: in vivo, 0.5 h.
Series [4] deals with Mus musculus. In words: Anticonvulsant activity in Swiss albino mouse assessed as protection against pentylenetetrazole-induced seizure at 100 mg/kg, ip after 20 mins. The class given is functional.
The test system of series [5] is Mus musculus. In words: Anticonvulsant activity in Swiss albino mouse assessed as protection against maximal electroshock-induced seizures at 100 mg/kg, ip administered for 30 mins followed by electric shock treatment. The class given is functional. For orientation: Protection in the maximal electroshock model is a classic sign of anticonvulsant action.
The subject of series [6] is Mus musculus. The experiment in a line: Protective index, ratio of TD50 for Swiss albino mouse assessed as motor performance to ED50 for protection against pentylenetetrazole-induced seizure in ip dosed Swiss albino mouse. The class given is functional.
Series [7] has as its system Mus musculus. In words: Anticonvulsant activity in ip dosed Swiss albino mouse assessed as protection against maximal electroshock-induced seizures administered for 30 mins followed by electric shock treatment. The class given is functional. The following applies: 0.5 h.
The subject of series [8] is Mus musculus. In words: Protective index, ratio of TD50 for Swiss albino mouse assessed as motor performance to ED50 for protection against maximal electroshock-induced seizure in ip dosed Swiss albino mouse. The class given is functional.
Series [9] relates to Mus musculus. The experiment in a line: Protective index, ratio of TD50 for Swiss albino mouse assessed as motor performance to ED50 for protection against picrotoxin-induced seizure in ip dosed Swiss albino mouse. The class given is functional.
Series [10] is described as follows: Therapeutic index, ratio of LD50 for ip dosed Swiss albino mouse to ED50 for protection against pentylenetetrazole induced seizure in ip dosed Swiss albino mouse. Conditions: in vivo, read-out: Ratio LD50/ED50. The class given is organism-based.
In series [11] the test system is Mus musculus. The experiment in a line: Potency index, ratio of compound activity to sodium valproate activity against pentylenetetrazole-induced seizure in ip dosed Swiss albino mouse. The class given is functional.
The subject of series [12] is Mus musculus. In words: Hypnotic activity in mouse assessed as loss of righting reflex and sleep at 100 mg/kg, ip after 2 mins. The class given is functional, organism-based.
Series [13] has as its system Mus musculus. The experiment in a line: Hypnotic activity in mouse assessed as decrease in locomotors activity at 100 mg/kg, ip after 20 mins. The class given is functional, organism-based.
In series [14] the test system is Mus musculus. The experiment in a line: Hypnotic activity in mouse assessed as calmness at 100 mg/kg, ip after 20 mins. The class given is functional, organism-based.
Series [15] has as its system Mus musculus. The experiment in a line: Hypnotic activity in mouse assessed as loss of righting reflex and sleep at 200 mg/kg, ip after 20 mins. The class given is functional, organism-based.
Series [16] deals with Mus musculus. The experiment in a line: Anticonvulsant activity in Swiss albino mouse assessed as pentylenetetrazole induced onset of convulsion time at 200 mg/kg, ip administered for 20 mins followed by pentylenetetrazole challenge. The class given is functional.
Series [17] concerns Mus musculus. In words: Anticonvulsant activity in Swiss albino mouse assessed as pentylenetetrazole induced convulsions frequency time at 200 mg/kg, ip administered for 20 mins followed by pentylenetetrazole challenge. The class given is functional.
The test system of series [18] is Mus musculus. The experiment in a line: Toxicity in pentylenetetrazole induced Swiss albino mouse convulsion model assessed as time of death at 200 mg/kg, ip administered for 20 mins followed by pentylenetetrazole challenge. The class given is organism-based. The following applies: in vivo.
Series [19] deals with Mus musculus. The experiment in a line: Hypnotic activity in mouse assessed as decrease in locomotors activity at 200 mg/kg, ip after 20 mins. The class given is functional, organism-based.
For series [20], the system named is Mus musculus. In words: Hypnotic activity in mouse assessed as quietness at 200 mg/kg, ip after 20 mins. The class given is functional, organism-based.
Series [21] concerns Mus musculus. In words: Hypnotic activity in mouse assessed as calmness at 200 mg/kg, ip after 20 mins. The class given is functional, organism-based.
The test system of series [22] is Mus musculus. The experiment in a line: Hypnotic activity in mouse assessed as muscle relaxation at 200 mg/kg, ip after 15 mins. The class given is functional, organism-based.
For series [23], the system named is Mus musculus. The experiment in a line: Anticonvulsant activity in Swiss albino mouse assessed as pentylenetetrazole induced onset of convulsion time at 100 mg/kg, ip administered for 20 mins followed by pentylenetetrazole challenge. The class given is functional.
Series [24] relates to Mus musculus. The experiment in a line: Anticonvulsant activity in Swiss albino mouse assessed as pentylenetetrazole induced convulsions frequency time at 100 mg/kg, ip administered for 20 mins followed by pentylenetetrazole challenge. The class given is functional.
In series [25] the test system is Mus musculus. The experiment in a line: Toxicity in pentylenetetrazole induced Swiss albino mouse convulsion model assessed as time of death at 100 mg/kg, ip administered for 20 mins followed by pentylenetetrazole challenge. The class given is organism-based. The following applies: in vivo.
For series [26], the system named is Mus musculus. The experiment in a line: Anticonvulsant activity in Swiss albino mouse assessed as protection against pentylenetetrazole-induced seizure at 200 mg/kg, ip administered for 20 mins followed by pentylenetetrazole challenge. The class given is functional.
Series [27] has as its system Mus musculus. The experiment in a line: Anticonvulsant activity in Swiss albino mouse assessed as protection against maximal electroshock-induced seizures at 200 mg/kg, ip administered for 30 mins followed by electric shock treatment. The class given is functional.

Broadly, the ED50 is the midpoint of the dose-response relation. On to `CC1=C(Br)SC2=NC(=O)CCCN21`, for which the Time in the series on Mus musculus [1] is on record as 13.5 min; in the series on Mus musculus [2], 5 min; in the series with Mus musculus [3], 23.1 min. In addition, the Activity in the series on Mus musculus [4] and in the series with Mus musculus [5] was 100% in each case. Moreover, the “Ratio TD50/ED50” value was found to be 1.51 in the series with Mus musculus [6], 2.17 with Mus musculus [8] and 1.31 in the series on Mus musculus [9]. Moreover, the ED50 with Mus musculus [7] came out at 78 mg/kg. In addition, the selectivity ratio in [10] worked out at 5.71. The Ratio in the series with Mus musculus [11] amounted to 4. In addition, the result in the series with Mus musculus [12], with Mus musculus [13], with Mus musculus [14] and with Mus musculus [15] was Active.

Regarding `CCOC(=O)C1=C(C)N2CC/C(=C\c3ccc(OC)cc3)C(=O)N=C2S1`, the Time is on record as 2.2 min in the series with Mus musculus [16]; 2.3 min in the series on Mus musculus [17]; 3.7 min with Mus musculus [18]; 9.1 min with Mus musculus [1]; 11.1 min in the series with Mus musculus [2]; 18.3 min in the series on Mus musculus [3].

As to `CC1=C(Sc2ccccc2C(=O)O)SC2=NC(=O)CCCN21`, the Time was determined as 1.5 min in the series on Mus musculus [16]; 2.8 min in the series on Mus musculus [17]; 3.8 min in the series with Mus musculus [18]; 7.8 min with Mus musculus [1]; 7.3 min in the series on Mus musculus [2]; 12.3 min with Mus musculus [3]. Further, the outcome in the series on Mus musculus [19] was Active.

For the compound `CC1=CN2CCCC(=O)N=C2S1`, the Time was 4.1 min in the series on Mus musculus [16]; 3.1 min in the series on Mus musculus [17]; 5.2 min in the series on Mus musculus [18]; 7.1 min with Mus musculus [1]; 8.7 min in the series on Mus musculus [2]; 10.1 min in the series with Mus musculus [3]. Further, the result in the series on Mus musculus [20] was Active.

Regarding `CC1=CSC2=NC(=O)/C(=C/c3ccc(Br)cc3)CCN12`, the Time is given as 2.1 min in the series with Mus musculus [16]; 2 min in the series on Mus musculus [17]; 3.6 min in the series with Mus musculus [18]; 12.5 min in the series on Mus musculus [1]; 2.5 min in the series on Mus musculus [2]; 19.5 min with Mus musculus [3]. Moreover, the result in the series on Mus musculus [20] was Active.

As for `CC1=CN2CC/C(=C\c3ccc(Br)cc3)C(=O)N=C2S1`, the Time in the series on Mus musculus [16] is recorded as 1.2 min; in the series on Mus musculus [17] it was 2.1 min; in the series on Mus musculus [18], 2.6 min; in the series with Mus musculus [1] it was 8 min; in the series with Mus musculus [2], 6 min; in the series with Mus musculus [3] it was 14.3 min.

Regarding `CCOC(=O)C1=C(C)N2CC/C(=C\c3ccc(Br)cc3)C(=O)N=C2S1`, the Time in the series on Mus musculus [16] is given as 7.3 min; in the series with Mus musculus [17] it was 4.1 min; with Mus musculus [18], 8.4 min; in the series with Mus musculus [1], 8.1 min; with Mus musculus [2], 6.1 min; in the series on Mus musculus [3] it was 11.6 min. Further, the result in the series with Mus musculus [19] was Active.

With `CCOC(=O)C1=C(C)N2CCCC(=O)N=C2S1`, the result in the series with Mus musculus [21], with Mus musculus [22] and in the series with Mus musculus [19] was Active. The values for the Time with Mus musculus [23], with Mus musculus [24] and in the series with Mus musculus [25] were 4.6 min, 2 min and 6.3 min, respectively. Further, the Activity in the series on Mus musculus [26] and in the series with Mus musculus [27] was 100% throughout. Moreover, the “Ratio TD50/ED50” value in the series on Mus musculus [6] was found to be 1.57; with Mus musculus [8] it was 2.22; in the series with Mus musculus [9] it was 1.35. Moreover, in the series on Mus musculus [7], the ED50 came to 90 mg/kg. In addition, the selectivity ratio in [10] was 5.28. The Ratio with Mus musculus [11] worked out at 2.

As to `CC1=CSC2=NC(=O)CCCN12`, the Time in the series on Mus musculus [16] was 1.5 min; with Mus musculus [17], 3.1 min; in the series with Mus musculus [18], 4.1 min; in the series with Mus musculus [1], 13.9 min; in the series on Mus musculus [2], 6.7 min; in the series with Mus musculus [3], 18.5 min. The outcome in the series with Mus musculus [20] was Active.

`COc1ccc(/C=C2\CCN3C=C(C)SC3=NC2=O)cc1`: in the series with Mus musculus [21], the outcome was Active. For the same compound, the Time was found to be 4.1 min in the series with Mus musculus [16]; 5.3 min in the series with Mus musculus [17]; 27.3 min with Mus musculus [18]; 10.1 min in the series on Mus musculus [1]; 3 min in the series with Mus musculus [2]; 8.1 min in the series on Mus musculus [3].

In the case of `COc1ccc(/C=C2\CCN3C(C)=CSC3=NC2=O)cc1`, the Time with Mus musculus [16] came to 2.3 min; with Mus musculus [17], 1.9 min; in the series with Mus musculus [18], 5.1 min; in the series on Mus musculus [1], 11.3 min; in the series on Mus musculus [2] it was 9.5 min; in the series with Mus musculus [3] it was 20.7 min. The outcome in the series on Mus musculus [20] was Active.
